Assay results reported in patent US7067665B2, “Oxybenzamide derivatives useful for inhibiting factor Xa or Vlla” (Sanofi-Aventis Deutschland GmbH, priority 2000, dated 2006).
Like-named read-outs stand apart in the source and are kept apart here.

Molecular target: T1, human factor Xa (Homo sapiens, UniProt P00742)
T1 construct: 25 μl human factor Xa (Enzyme Research Laboratories, Inc; South Bend, Ind.); purchased Enzyme Research Laboratories, Inc; South Bend, Ind
Assay: Factor Xa chromogenic assay (substrate S-2765);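 note: purified enzyme, compound preincubated with the enzyme for 10 min before substrate addition starts the reaction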
Assay type: biochemical
Settings: read-out: Ki(FXa)

[1] = inhibition constant for inhibition of factor Xa, IC50 corrected for substrate competition, 25° C., enzyme 0.5 nM, substrate 140 μM

T1 sequence (P00742 235-488 limits assumed): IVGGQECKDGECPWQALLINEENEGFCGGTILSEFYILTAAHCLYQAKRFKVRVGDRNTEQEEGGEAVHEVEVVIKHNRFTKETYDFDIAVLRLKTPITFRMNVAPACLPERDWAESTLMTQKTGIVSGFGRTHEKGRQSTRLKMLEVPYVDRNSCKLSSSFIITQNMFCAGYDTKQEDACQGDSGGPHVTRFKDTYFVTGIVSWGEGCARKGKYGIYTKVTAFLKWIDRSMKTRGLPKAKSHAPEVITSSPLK
T1 sequence (P00742 41-179 partner limits assumed): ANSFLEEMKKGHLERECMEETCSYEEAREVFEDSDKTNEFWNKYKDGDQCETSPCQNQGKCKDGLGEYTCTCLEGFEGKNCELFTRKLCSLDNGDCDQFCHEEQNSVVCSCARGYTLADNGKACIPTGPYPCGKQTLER

Row | SMILES | Ki [1] [nM] | Ki [nM]
1 | COc1ccc(C(=O)N2CCN(Cc3ccccn3)CC2)cc1OCCc1ccc(Cl)cc1Cl [Example 2, {3-[2-(2,4-Dichlorophenyl)-ethoxy]-4-methoxy-phenyl}-(4-pyridin-2-ylmethyl-piperazin-1-yl)-methanone] | 1540 | –
2 | COc1ccc(C(=O)N2CCN(c3ccncc3)CC2)cc1OCCc1ccc(Cl)cc1Cl [Example 3, {3-[2-(2,4-Dichlorophenyl)-ethoxy]-4-methoxy-phenyl}-(4-pyridin-4-yl-piperazin-1-yl)-methanone] | 5410 | –
3 | Cc1ccc(C(=O)N2CCN(Cc3ccncc3)CC2)cc1OCCc1ccc(Cl)cc1Cl [Example 4, {3-[2-(2,4-Dichlorophenyl)-ethoxy]-4-methyl-phenyl}-(4-pyridin-4-ylmethyl-piperazin-1-yl)-methanone] | – | 298
4 | COc1cc(C(=O)N2CCN(Cc3ccncc3)CC2)cc(OCCc2ccc(Cl)cc2Cl)c1OC [Example 5, {3-[2-(2,4-Dichloro-phenyl)-ethoxy]-4,5-dimethoxy-phenyl}-(4-pyridin-4-ylmethyl-piperazin-1-yl)-methanone] | 167 | –
5 | CCOc1ccc(C(=O)N2CCN(Cc3ccncc3)CC2)cc1OCCc1ccc(Cl)cc1Cl [Example 9, {3-[2-(2,4-Dichloro-phenyl)-ethoxy]-4-ethoxy-phenyl}-(4-pyridin-4-ylmethyl-piperazin-1-yl)-methanone] | 306 | –
6 | COc1ccc(C(=O)N2CCN(Cc3ccc(C#N)cc3)CC2)cc1OCCc1ccc(Cl)cc1Cl [Example 11, 4-(4-{3-[2-(2,4-Dichloro-phenyl)-ethoxy]-4-methoxy-benzoyl}-piperazin-1-ylmethyl)-benzonitrile] | 1380 | –
7 | COc1ccc(C(=O)N2CCN(Cc3ccc(F)cc3)CC2)cc1OCCc1ccc(Cl)cc1Cl [Example 12, {3-[2-(2,4-Dichlorophenyl)-ethoxy]-4-methoxy-phenyl}-[4-(4-fluorobenzyl)-piperazin-1-yl]-methanone] | – | 3010
8 | COc1ccc(C(=O)N2CCN(CC(=O)N(C)C)CC2)cc1OCCc1ccc(Cl)cc1Cl [Example 13, 2-(4-{3-[2-(2,4-Dichlorophenyl)-ethoxy]-4-methoxy-benzoyl}-piperazin-1-yl)-N,N-dimethyl-acetamide] | 1410 | –
9 | COc1ccc(C(=O)N2CCN(CC(=O)N3CCCC3)CC2)cc1OCCc1ccc(Cl)cc1Cl [Example 14, 2-(4-{3-[2-(2,4-Dichlorophenyl)-ethoxy]-4-methoxy-benzoyl}-piperazin-1-yl)-1-pyrrolidin-1-yl-ethanone] | 2180 | –
10 | COc1ccc(C(=O)NCCCN2CCCCC2)cc1OCCc1ccc(Cl)cc1Cl [Example 15, 3-[2-(2,4-Dichlorophenyl)-ethoxy]-4-methoxy-N-(3-piperidin-1-yl-propyl)-benzamide] | 2220 | –
11 | COc1ccc(C(=O)NCCN2CCCCC2)cc1OCCc1ccc(Cl)cc1Cl [Example 16, 3-[2-(2,4-Dichloro-phenyl)-ethoxy]-4-methoxy-N-(2-piperidin-1-yl-ethyl)-benzamide] | 4220 | –
12 | Cc1ccc(C(=O)N2CCN(Cc3cc[n+]([O-])cc3)CC2)cc1OCCc1ccc(Cl)cc1Cl [Example 17, {3-[2-(2,4-Dichloro-phenyl)-ethoxy]-4-methyl-phenyl}-[4-(1-oxy-pyridin-4-ylmethyl)-piperazin-1-yl]-methanone] | 407 | –
13 | O=C(c1ccc(CO)c(OCCc2ccc(Cl)cc2Cl)c1)N1CCN(Cc2cc[n+]([O-])cc2)CC1 [Example 18, {3-[2-(2,4-Dichloro-phenyl)-ethoxy]-4-hydroxymethyl-phenyl}-[4-(1-oxy-pyridin-4-ylmethyl)-piperazin-1-yl]-methanone] | 6200 | –
14 | COc1cc(C(=O)N2CCN(Cc3ccncc3)CC2)cc(OCCc2ccc(Cl)cc2Cl)c1Br [Example 19, {4-Bromo-3-[2-(2,4-dichlorophenyl)-ethoxy]-5-methoxyphenyl}-(4-pyridin-4-ylmethyl-piperazin-1-yl)-methanone] | – | 95
15 | COc1ccc(C(=O)NCC2CC(c3ccncc3)=NO2)cc1OCCc1ccc(Cl)cc1Cl (stereo not shown) [Example 24, 3-[2-(2,4-Dichloro-phenyl)-ethoxy]-4-methoxy-N-(3-pyridin-4-yl-4,5-dihydro-isoxazol-5-ylmethyl)-benzamide] | 1130 | –
16 | COc1ccc(C(=O)NCC2CC(c3cc[n+]([O-])cc3)=NO2)cc1OCCc1ccc(Cl)cc1Cl (stereo not shown) [Example 28, 3-[2-(2,4-Dichloro-phenyl)-ethoxy]-N-[3-(1-hydroxy-pyridin-4-yl)-4,5-dihydro-isoxazol-5-ylmethyl]-4-methoxy-benzamide] | 960 | –
17 | COc1ccc(C(=O)NCC2CCC(CN)CC2)cc1OCCc1ccc(Cl)cc1Cl (stereo not shown) [Example 31, N-(4-Aminomethyl-cyclohexylmethyl)-3-[2-(2,4-dichloro-phenyl)-ethoxy]-4-methoxy-benzamide] | 9340 | –
18 | COc1ccc(C(=O)NCC2CCN(C3CCCC3)CC2)cc1OCCc1ccc(Cl)cc1Cl [Example 54, N-(1-Cyclopentyl-piperidin-4-ylmethyl)-3-[2-(2,4-dichloro-phenyl)-ethoxy]-4-methoxy-benzamide] | 6520 | –
19 | COc1ccc(C(=O)NCC2CCN(C3CCCCC3)CC2)cc1OCCc1ccc(Cl)cc1Cl [Example 56] | 4330 | –
20 | COc1ccc(C(=O)NCC2CCN(C3CCCCCC3)CC2)cc1OCCc1ccc(Cl)cc1Cl [Example 57] | 6220 | –
21 | COc1ccc(C(=O)NCC2CCN(c3cc[n+]([O-])cc3)CC2)cc1OCCc1ccc(Cl)cc1Cl [Example 66] | 1480 | –
22 | COc1ccc(C(=O)NCC2CCN(c3ccccn3)CC2)cc1OCCc1ccc(Cl)cc1Cl [Example 68, 3-[2-(2,4-Dichloro-phenyl)-ethoxy]-4-methoxy-N-(3,4,5,6-tetrahydro-2H-[1,2′]bipyridinyl-4-ylmethyl)-benzamide] | 3040 | –

Row | SMILES | Ki [1] [nM] | Ki [nM]
23 | O=C(NCC1CCN(c2ccncc2)CC1)c1cc(OCCc2ccc(Cl)cc2Cl)ccc1Cl [Example 81] | – | 241
24 | O=C(NCC1CCN(c2ccncc2)CC1)c1cc(OCCc2ccc(Cl)cc2Cl)ccc1[N+](=O)[O-] [Example 84] | 4880 | –
25 | O=C(NCC1CCN(c2ccncc2)CC1)c1cccc(OCCc2ccc(Cl)cc2Cl)n1 [Example 85] | – | 304
26 | O=C(NCC1CCN(c2ccncc2)CC1)c1cc(O)c(Br)c(OCCc2ccc(Cl)cc2Cl)c1 [Example 86] | – | 26
27 | O=C(NCC1CCN(c2ccncc2)CC1)c1cncc(OCCc2ccc(Cl)cc2Cl)c1 [Example 87] | – | 70
28 | O=C(Nc1cccc(C(=O)NCC2CCN(c3ccncc3)CC2)c1)Nc1ccc(Cl)cn1 [Example 91, 3-[3-(5-Chloro-pyridin-2-yl)-ureido]-N-(3,4,5,6-tetrahydro-2H-[1,4′]bipyridinyl-4-ylmethyl)-benzamide] | – | 1390
29 | COc1ccc(C(=O)NCC2CCN(c3ccncc3)CC2)cc1OCc1cc(-c2ccc(Cl)s2)on1 [Example 93, 3-[5-(5-Chloro-thiophen-2-yl)-isoxazol-3-ylmethoxy]-4-methoxy-N-(3,4,5,6-tetrahydro-2H-[1,4′]bipyridinyl-4-ylmethyl)-benzamide] | – | 188
30 | COc1ccc(C(=O)NCC2CCN(c3ccncc3)CC2)cc1Oc1nc2ccc(Cl)cc2s1 [Example 94] | – | 760
31 | COc1ccc(C(=O)NCC2CCN(c3ccncc3)CC2)cc1NS(=O)(=O)c1cc2ccc(Cl)cc2s1 [Example 97, 3-(6-Chloro-benzo[b]thiophene-2-sulfonylamino)-4-methoxy-N-(3,4,5,6-tetrahydro-2H-[1,4′]bipyridinyl-4-ylmethyl)-benzamide] | – | 3500
32 | O=C(NCC1CCN(c2ccncc2)CC1)c1cccc(S(=O)(=O)Nc2ccc(Cl)cn2)c1 [Example 99, 3-(5-Chloro-pyridin-2-ylsulfamoyl)-N-(3,4,5,6-tetrahydro-2H-[1,4′]bipyridinyl-4-ylmethyl)-benzamide] | – | 3710
33 | COc1ccc(C(=O)NCC2CCN(c3ccncc3)CC2)cc1NC(=O)Cc1ccc(Cl)cc1Cl [Example 100, 3-[2-(2,4-Dichloro-phenyl)-acetylamino]-4-methoxy-N-(3,4,5,6-tetrahydro-2H-[1,4′]bipyridinyl-4-ylmethyl)-benzamide] | – | 298
34 | O=C(NCC1CCN(c2ccncc2)CC1)c1cc(OCCc2ccc(Cl)cc2Cl)c[n+]([O-])c1 [Example 102, 5-[2-(2,4-Dichloro-phenyl)-ethoxy]-1-oxy-N-(3,4,5,6-tetrahydro-2H-[1,4′]bipyridinyl-4-ylmethyl)-nicotinamide] | – | 636
35 | COc1ccc(C(=O)NC2CCN(C3CCCCC3)CC2)cc1OCCc1ccc(Cl)cc1Cl [Example 128, N-(1-Cyclohexyl-piperidin-4-yl)-3-[2-(2,4-dichloro-phenyl)-ethoxy]-4-methoxy-benzamide] | – | 40900
36 | COc1ccc(C(=O)NC2CCN(C3CCOCC3)CC2)cc1OCCc1ccc(Cl)cc1Cl [Example 129] | – | 25200
37 | COc1ccc(C(=O)NCC2CCN(c3ccncc3)CC2)cc1OCC1(c2ccc(Cl)cc2)CC1 [Example 140] | – | 69500
38 | COc1ccc(C(=O)NCC2CCN(c3ccncc3)CC2)cc1OCCc1ccc(Cl)nc1 [Example 145] | – | 591
39 | Cc1cc(N2CCC(CNC(=O)c3ccc(Cl)c(OCCc4ccc(Cl)nc4)c3)CC2)ccn1 [Example 167, 4-Chloro-3-[2-(6-chloro-pyridin-3-yl)-ethoxy]-N-(2′-methyl-3,4,5,6-tetrahydro-2H-[1,4′]bipyridinyl-4-ylmethyl)-benzamide] | – | 277
40 | COc1cc(C(=O)NCC2CCN(c3ccnc(C)c3)CC2)cc(OCCc2ccc(Cl)cc2Cl)c1Cl [Example 168] | – | 24
41 | COc1ccc(C(=O)NCC2CCN(c3ccnc(C)c3)CC2)cc1OCCc1ccc(Cl)cc1 [Example 171] | – | 130
42 | Cc1ccc(C(=O)NCC2CCN(c3ccnc(Cl)n3)CC2)cc1OCCc1ccc(Cl)cc1Cl [Example 172, N-[1-(2-Chloro-pyrimidin-4-yl)-piperidin-4-ylmethyl]-3-[2-(2,4-dichloro-phenyl)-ethoxy]-4-methyl-benzamide] | – | 6450
43 | O=C(c1ccc(Br)c(OCCc2ccc(Cl)cc2Cl)c1)N1CCN(Cc2ccncc2)CC1 [Example 176, {4-Bromo-3-[2-(2,4-dichloro-phenyl)-ethoxy]-phenyl}-(4-pyridin-4-ylmethyl-piperazin-1-yl)-methanone] | – | 365
